Experiments:
CDK9/cyclin T2 = biological target: T1, CDK9/cyclin T2 (Homo sapiens, UniProt P50750); test: Kinome profiling; assay type: biochemical; details: VT02956 (5 nM), read-out: % enzymatic activity relative to DMSO controls
T1 construct: LATS1/LATS2 enzymes from Signalchem

LATS2 = biological target: T2, LATS2 (Homo sapiens, UniProt Q9NRM7); test: Kinome profiling; assay type: biochemical; details: VT02956 (5 nM)
T2 construct: purchased Signalchem
T2 sequence (Q9NRM7 1-1088): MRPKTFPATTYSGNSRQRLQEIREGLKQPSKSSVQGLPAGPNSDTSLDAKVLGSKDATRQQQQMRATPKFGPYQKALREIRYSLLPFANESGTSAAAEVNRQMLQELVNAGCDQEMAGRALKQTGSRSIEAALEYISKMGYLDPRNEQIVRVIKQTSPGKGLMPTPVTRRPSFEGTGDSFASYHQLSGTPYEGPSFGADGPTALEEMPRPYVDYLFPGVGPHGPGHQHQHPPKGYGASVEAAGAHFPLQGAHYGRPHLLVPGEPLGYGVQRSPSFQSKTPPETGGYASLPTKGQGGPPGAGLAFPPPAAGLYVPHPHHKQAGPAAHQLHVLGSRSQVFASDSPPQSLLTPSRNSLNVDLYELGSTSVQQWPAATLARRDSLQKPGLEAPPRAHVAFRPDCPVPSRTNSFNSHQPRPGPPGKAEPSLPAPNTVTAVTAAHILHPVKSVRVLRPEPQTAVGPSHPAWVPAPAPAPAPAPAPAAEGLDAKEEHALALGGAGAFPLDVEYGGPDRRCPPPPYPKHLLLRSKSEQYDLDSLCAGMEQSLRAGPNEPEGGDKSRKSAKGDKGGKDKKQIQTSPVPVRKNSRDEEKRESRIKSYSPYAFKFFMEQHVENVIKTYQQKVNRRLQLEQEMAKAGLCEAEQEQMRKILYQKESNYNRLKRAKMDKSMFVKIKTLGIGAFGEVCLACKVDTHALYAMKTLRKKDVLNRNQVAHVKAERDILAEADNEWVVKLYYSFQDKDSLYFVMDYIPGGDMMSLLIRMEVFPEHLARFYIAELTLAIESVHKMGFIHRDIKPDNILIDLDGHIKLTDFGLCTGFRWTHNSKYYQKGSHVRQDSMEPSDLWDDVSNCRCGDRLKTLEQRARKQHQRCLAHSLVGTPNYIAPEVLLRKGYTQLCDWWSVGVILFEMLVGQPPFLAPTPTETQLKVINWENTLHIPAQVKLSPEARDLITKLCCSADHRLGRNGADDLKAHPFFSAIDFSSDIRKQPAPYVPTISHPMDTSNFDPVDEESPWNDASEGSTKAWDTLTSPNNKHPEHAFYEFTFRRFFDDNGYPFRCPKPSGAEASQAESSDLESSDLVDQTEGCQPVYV

CK2a2 = biological target: T3, CK2a2 (Homo sapiens, UniProt P19784); test: Kinome profiling; assay type: biochemical; details: VT02956 (5 nM), read-out: % enzymatic activity relative to DMSO controls
T3 construct: LATS1/LATS2 enzymes from Signalchem

RSK1 = biological target: T4, RSK1 (Homo sapiens, UniProt Q15418); test: Kinome profiling; assay type: biochemical; details: VT02956 (5 nM), read-out: % enzymatic activity relative to DMSO controls
T4 construct: LATS1/LATS2 enzymes from Signalchem

STK38/NDR1 = biological target: T5, STK38/NDR1 (Homo sapiens, UniProt Q15208); test: Kinome profiling; assay type: biochemical; details: VT02956 (5 nM), read-out: % enzymatic activity relative to DMSO controls
T5 construct: LATS1/LATS2 enzymes from Signalchem

STK38L/NDR2 = biological target: T6, STK38L/NDR2 (Homo sapiens, UniProt Q9Y2H1); test: Kinome profiling; assay type: biochemical; details: VT02956 (5 nM), read-out: % enzymatic activity relative to DMSO controls
T6 construct: LATS1/LATS2 enzymes from Signalchem

CHK1 = biological target: T7, CHK1 (Homo sapiens, UniProt O14757); test: Kinome profiling; assay type: biochemical; details: VT02956 (5 nM)
T7 construct: LATS1/LATS2 enzymes from Signalchem

[1] = system: ERα, YAP/TAZ phosphorylation in MCF-7 cells; test: Immunoblot analysis, MCF-7 cells; assay type: cell-based, human; details: MCF-7; 0.1, 0.5 and 2 μM for 2 days; Fig. 5f
EPHA3 = biological target: T8, EPHA3 (Homo sapiens, UniProt P29320); test: Kinome profiling; assay type: biochemical; details: VT02956 (5 nM), read-out: % enzymatic activity relative to DMSO controls
T8 construct: LATS1/LATS2 enzymes from Signalchem

AKT1 = biological target: T9, AKT1 (Homo sapiens, UniProt P31749); test: Kinome profiling; assay type: biochemical; details: VT02956 (5 nM)
T9 construct: LATS1/LATS2 enzymes from Signalchem

PKMYT1 = biological target: T10, PKMYT1 (Homo sapiens, UniProt Q99640); test: Kinome profiling; assay type: biochemical; details: VT02956 (5 nM)
T10 construct: LATS1/LATS2 enzymes from Signalchem

CAMKK1 = biological target: T11, CAMKK1 (Homo sapiens, UniProt Q8N5S9); test: Kinome profiling; assay type: biochemical; details: VT02956 (5 nM), read-out: % enzymatic activity relative to DMSO controls
T11 construct: LATS1/LATS2 enzymes from Signalchem

4T1 cells = test: Cell viability, 4T1; assay type: cell-based
AKT2 = biological target: T12, AKT2 (Homo sapiens, UniProt P31751); test: Kinome profiling; assay type: biochemical; details: VT02956 (5 nM), read-out: % enzymatic activity relative to DMSO controls
T12 construct: LATS1/LATS2 enzymes from Signalchem

melanoma B16 cells = test: Cell proliferation, B16; assay type: cell-based; details: 0.5 µM or 2 µM VT02956 for 4 days; Supplementary Fig. 8f
Procedure: (§1) Cell proliferation rates were determined by automated cell counter. In brief, cells were plated at density of 0.1 million cells per well in six-well plate. Cell numbers were counted by the indicated time point as stated in the figure legends.

RIPK2 = biological target: T13, RIPK2 (Homo sapiens, UniProt O43353); test: Kinome profiling; assay type: biochemical; details: VT02956 (5 nM), read-out: % enzymatic activity relative to DMSO controls
T13 construct: LATS1/LATS2 enzymes from Signalchem

MDA-MB-231 cells = test: Cell proliferation, MDA-MB-231; assay type: cell-based; details: 0.5 µM or 2 µM VT02956 for 4 days; Supplementary Fig. 8e
Procedure: as §1

PKN3/PRK3 = biological target: T14, PKN3/PRK3 (Homo sapiens, UniProt Q6P5Z2); test: Kinome profiling; assay type: biochemical; details: VT02956 (5 nM)
T14 construct: LATS1/LATS2 enzymes from Signalchem

TYK2 = biological target: T15, TYK2 (Homo sapiens, UniProt P29597); test: Kinome profiling; assay type: biochemical; details: VT02956 (5 nM)
T15 construct: LATS1/LATS2 enzymes from Signalchem

p70S6K/RPS6KB1 = biological target: T16, p70S6K/RPS6KB1 (Homo sapiens, UniProt P23443); test: Kinome profiling; assay type: biochemical; details: VT02956 (5 nM), read-out: % enzymatic activity relative to DMSO controls
T16 construct: LATS1/LATS2 enzymes from Signalchem

BTK = biological target: T17, BTK (Homo sapiens, UniProt Q06187); test: Kinome profiling; assay type: biochemical; details: VT02956 (5 nM)
T17 construct: LATS1/LATS2 enzymes from Signalchem

SNRK = biological target: T18, SNRK (Homo sapiens, UniProt Q9NRH2); test: Kinome profiling; assay type: biochemical; details: VT02956 (5 nM), read-out: % enzymatic activity relative to DMSO controls
T18 construct: LATS1/LATS2 enzymes from Signalchem

CDK9/cyclin T1 = biological target: T19, CDK9/cyclin T1 (Homo sapiens, UniProt P50750); test: Kinome profiling; assay type: biochemical; details: VT02956 (5 nM), read-out: % enzymatic activity relative to DMSO controls
T19 construct: LATS1/LATS2 enzymes from Signalchem

IKKb/IKBKB = biological target: T20, IKKb/IKBKB (Homo sapiens, UniProt O14920); test: Kinome profiling; assay type: biochemical; details: VT02956 (5 nM), read-out: % enzymatic activity relative to DMSO controls
T20 construct: LATS1/LATS2 enzymes from Signalchem

NEK11 = biological target: T21, NEK11 (Homo sapiens, UniProt Q8NG66); test: Kinome profiling; assay type: biochemical; details: VT02956 (5 nM), read-out: % enzymatic activity relative to DMSO controls
T21 construct: LATS1/LATS2 enzymes from Signalchem

CK2a = biological target: T22, CK2a (Homo sapiens, UniProt P68400); test: Kinome profiling; assay type: biochemical; details: VT02956 (5 nM), read-out: % enzymatic activity relative to DMSO controls
T22 construct: LATS1/LATS2 enzymes from Signalchem

T3 sequence (P19784 whole entry): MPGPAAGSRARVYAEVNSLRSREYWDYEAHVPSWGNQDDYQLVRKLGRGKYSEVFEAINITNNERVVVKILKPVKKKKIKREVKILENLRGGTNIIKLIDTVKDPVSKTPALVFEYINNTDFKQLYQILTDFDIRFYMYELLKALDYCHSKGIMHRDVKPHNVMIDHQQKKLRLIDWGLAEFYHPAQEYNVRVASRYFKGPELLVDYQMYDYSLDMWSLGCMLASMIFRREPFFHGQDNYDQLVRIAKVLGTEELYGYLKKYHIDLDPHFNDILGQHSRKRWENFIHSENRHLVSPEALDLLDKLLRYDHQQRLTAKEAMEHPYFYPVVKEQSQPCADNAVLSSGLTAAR
T1 sequence (P50750 whole entry): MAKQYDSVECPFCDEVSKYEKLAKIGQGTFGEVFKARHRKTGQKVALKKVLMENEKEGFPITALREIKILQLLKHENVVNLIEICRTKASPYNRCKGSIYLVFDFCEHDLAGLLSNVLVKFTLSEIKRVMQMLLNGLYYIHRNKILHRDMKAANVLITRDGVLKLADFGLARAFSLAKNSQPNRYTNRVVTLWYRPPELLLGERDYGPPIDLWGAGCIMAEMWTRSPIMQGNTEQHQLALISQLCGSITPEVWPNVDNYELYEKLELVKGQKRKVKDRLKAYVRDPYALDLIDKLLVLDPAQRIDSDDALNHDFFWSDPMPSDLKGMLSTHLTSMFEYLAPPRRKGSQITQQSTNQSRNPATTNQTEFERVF
T1 sequence (O60583 whole entry partner): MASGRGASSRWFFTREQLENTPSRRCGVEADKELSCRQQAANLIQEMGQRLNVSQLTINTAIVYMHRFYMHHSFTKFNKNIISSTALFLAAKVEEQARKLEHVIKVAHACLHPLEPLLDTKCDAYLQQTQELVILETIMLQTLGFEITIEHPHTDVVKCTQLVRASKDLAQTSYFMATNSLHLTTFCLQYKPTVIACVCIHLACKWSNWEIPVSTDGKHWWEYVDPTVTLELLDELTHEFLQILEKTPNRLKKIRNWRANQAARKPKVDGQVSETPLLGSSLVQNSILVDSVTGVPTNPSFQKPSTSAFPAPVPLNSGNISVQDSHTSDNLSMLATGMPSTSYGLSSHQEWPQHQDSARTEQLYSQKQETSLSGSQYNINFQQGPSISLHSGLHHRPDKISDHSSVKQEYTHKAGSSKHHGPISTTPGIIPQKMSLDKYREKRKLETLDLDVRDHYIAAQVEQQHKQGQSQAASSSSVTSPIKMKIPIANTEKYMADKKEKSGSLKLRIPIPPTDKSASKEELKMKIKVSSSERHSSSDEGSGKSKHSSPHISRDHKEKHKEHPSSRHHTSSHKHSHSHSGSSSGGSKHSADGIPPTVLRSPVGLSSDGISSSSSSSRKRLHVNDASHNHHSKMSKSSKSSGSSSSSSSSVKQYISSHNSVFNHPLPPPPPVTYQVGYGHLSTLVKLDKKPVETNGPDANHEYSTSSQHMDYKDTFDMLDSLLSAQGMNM
T19 sequence (P50750 whole entry): as the sequence (P50750 whole entry) above
T19 sequence (O60563 whole entry partner): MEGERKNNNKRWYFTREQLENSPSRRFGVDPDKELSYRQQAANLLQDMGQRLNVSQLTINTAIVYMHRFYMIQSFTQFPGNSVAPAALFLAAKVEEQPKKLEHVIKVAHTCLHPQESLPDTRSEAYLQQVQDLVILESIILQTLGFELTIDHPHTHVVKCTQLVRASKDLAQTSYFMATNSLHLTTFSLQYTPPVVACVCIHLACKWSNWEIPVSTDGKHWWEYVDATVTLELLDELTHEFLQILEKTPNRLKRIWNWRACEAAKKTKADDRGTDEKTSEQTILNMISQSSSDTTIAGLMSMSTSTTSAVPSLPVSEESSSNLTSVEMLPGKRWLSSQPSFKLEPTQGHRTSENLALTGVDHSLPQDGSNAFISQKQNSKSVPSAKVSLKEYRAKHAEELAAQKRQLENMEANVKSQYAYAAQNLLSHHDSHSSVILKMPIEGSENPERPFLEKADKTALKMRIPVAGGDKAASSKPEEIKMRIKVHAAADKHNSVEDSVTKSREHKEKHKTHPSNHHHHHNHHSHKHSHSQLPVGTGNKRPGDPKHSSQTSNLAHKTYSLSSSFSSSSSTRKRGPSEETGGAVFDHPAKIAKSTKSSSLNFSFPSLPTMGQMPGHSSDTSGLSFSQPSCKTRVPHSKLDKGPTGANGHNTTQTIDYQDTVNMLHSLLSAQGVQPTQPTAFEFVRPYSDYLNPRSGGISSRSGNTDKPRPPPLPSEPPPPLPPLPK
T6 sequence (Q9Y2H1 whole entry): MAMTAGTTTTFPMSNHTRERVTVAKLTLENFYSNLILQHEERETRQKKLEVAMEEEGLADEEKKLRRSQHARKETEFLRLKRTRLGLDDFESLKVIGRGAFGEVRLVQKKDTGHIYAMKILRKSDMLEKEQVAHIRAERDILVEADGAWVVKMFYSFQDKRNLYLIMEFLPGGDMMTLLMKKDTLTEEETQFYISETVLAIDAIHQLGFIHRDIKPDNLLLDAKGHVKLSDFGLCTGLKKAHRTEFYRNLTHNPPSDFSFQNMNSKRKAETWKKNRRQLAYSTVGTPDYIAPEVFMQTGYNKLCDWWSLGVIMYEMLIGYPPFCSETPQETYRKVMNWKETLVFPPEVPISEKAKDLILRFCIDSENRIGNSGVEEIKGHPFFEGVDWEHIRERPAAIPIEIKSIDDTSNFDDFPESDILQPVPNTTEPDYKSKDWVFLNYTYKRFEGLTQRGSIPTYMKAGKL
T16 sequence (P23443 whole entry): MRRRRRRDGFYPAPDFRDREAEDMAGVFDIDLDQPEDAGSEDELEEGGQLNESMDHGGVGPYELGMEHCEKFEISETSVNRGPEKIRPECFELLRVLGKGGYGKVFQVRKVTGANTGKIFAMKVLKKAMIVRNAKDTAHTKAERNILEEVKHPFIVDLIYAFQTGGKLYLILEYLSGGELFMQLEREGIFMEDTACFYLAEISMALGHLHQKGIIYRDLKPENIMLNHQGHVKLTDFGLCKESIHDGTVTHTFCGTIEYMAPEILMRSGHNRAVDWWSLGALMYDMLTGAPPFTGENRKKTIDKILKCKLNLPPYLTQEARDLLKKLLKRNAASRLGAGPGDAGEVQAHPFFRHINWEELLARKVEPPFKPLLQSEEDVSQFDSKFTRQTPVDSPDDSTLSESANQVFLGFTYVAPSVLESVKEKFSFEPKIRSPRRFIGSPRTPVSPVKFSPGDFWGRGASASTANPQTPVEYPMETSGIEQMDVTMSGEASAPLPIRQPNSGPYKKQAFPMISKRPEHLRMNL
T20 sequence (O14920 whole entry): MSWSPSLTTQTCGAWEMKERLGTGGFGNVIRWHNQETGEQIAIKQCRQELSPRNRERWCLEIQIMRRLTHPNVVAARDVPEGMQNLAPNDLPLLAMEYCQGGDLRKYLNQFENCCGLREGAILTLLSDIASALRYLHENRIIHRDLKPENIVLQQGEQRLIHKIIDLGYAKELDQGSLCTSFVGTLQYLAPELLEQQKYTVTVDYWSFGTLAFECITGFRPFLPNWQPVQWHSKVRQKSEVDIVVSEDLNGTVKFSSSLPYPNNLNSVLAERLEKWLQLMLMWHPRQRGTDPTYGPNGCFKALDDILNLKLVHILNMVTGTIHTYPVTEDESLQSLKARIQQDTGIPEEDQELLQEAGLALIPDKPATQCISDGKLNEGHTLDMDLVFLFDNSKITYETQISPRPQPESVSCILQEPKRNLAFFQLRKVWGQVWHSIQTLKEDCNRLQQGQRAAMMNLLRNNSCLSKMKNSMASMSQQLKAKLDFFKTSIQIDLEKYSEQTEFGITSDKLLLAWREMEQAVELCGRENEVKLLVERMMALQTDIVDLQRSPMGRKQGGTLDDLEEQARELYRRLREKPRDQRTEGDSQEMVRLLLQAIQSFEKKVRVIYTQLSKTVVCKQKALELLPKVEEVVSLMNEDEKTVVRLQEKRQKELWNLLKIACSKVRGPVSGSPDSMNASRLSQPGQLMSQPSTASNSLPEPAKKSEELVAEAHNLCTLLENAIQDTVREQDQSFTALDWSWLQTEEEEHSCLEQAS
T4 sequence (Q15418 whole entry): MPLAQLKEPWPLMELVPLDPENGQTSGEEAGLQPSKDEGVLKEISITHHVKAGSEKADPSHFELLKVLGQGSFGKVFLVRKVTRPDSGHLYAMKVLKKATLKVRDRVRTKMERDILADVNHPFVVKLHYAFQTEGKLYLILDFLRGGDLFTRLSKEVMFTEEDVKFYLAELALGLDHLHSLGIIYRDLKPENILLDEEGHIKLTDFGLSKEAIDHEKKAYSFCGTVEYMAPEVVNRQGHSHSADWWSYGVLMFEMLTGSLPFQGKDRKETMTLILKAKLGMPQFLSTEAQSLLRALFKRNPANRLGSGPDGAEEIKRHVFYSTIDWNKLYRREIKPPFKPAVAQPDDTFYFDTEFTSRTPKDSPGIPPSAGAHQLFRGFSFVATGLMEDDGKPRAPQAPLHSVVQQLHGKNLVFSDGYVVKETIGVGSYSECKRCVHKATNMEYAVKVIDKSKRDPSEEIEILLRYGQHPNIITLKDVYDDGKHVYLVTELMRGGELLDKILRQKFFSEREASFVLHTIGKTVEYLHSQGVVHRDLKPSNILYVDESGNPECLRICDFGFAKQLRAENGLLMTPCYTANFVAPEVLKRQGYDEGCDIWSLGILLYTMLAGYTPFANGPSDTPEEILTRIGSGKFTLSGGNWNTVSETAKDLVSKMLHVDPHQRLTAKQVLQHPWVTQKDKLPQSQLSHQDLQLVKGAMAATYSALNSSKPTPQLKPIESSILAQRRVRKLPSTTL

- remaining activity at 0.005 µM (CDK9/cyclin T2): 74%
- % enzymatic activity relative to DMSO controls (LATS2): 34%
- remaining activity at 0.005 µM (CK2a2): 78%
- remaining activity at 0.005 µM (RSK1): 86%
- remaining activity at 0.005 µM (STK38/NDR1): 16%
- remaining activity at 0.005 µM (STK38L/NDR2): 29%
- % enzymatic activity relative to DMSO controls (CHK1): 80%
- remaining activity at 0.005 µM (EPHA3): 84%
- % enzymatic activity relative to DMSO controls (AKT1): 78%
- % enzymatic activity relative to DMSO controls (PKMYT1): 77%
- remaining activity at 0.005 µM (CAMKK1): 83%
- IC50 (4T1 cells; Mus musculus, 4T1 cells, n = 2, read-out: Cell viability inhibition IC50): > 10 µM
- remaining activity at 0.005 µM (AKT2): 85%
- remaining activity at 0.005 µM (RIPK2): 75%
- % enzymatic activity relative to DMSO controls (PKN3/PRK3): 64%
- % enzymatic activity relative to DMSO controls (TYK2): 78%
- remaining activity at 0.005 µM (p70S6K/RPS6KB1): 38%
- % enzymatic activity relative to DMSO controls (BTK): 83%
- remaining activity at 0.005 µM (SNRK): 86%
- remaining activity at 0.005 µM (CDK9/cyclin T1): 80%
- remaining activity at 0.005 µM (IKKb/IKBKB): 86%
- remaining activity at 0.005 µM (NEK11): 82%
- remaining activity at 0.005 µM (CK2a): 85%
Structure (SMILES): NCC1CCN(c2nc(-c3ccncc3)nc3c(C#CCO)cccc23)CC1 [VT02956]
- YAP/TAZ dephosphorylation and ERα reduction (immunoblot) [1]: dose-dependently induces YAP/TAZ dephosphorylation and ERα reduction
- growth of ER negative breast cancer cells 4T1 (cell viability) (4T1 cells; increasing concentrations of VT02956, Supplementary Fig. 8g): does not inhibit the growth
- growth of ER negative melanoma B16 cells (melanoma B16 cells): had little effect
- growth of ER negative breast cancer MDA-MB-231 cells (MDA-MB-231 cells): had little effect
